# From ChEMBL document CHEMBL1770052, “Pharmacophore elucidation for a new series of 2-aryl-pyrazolo-triazolo-pyrimidines as potent human A3 adenosine receptor antagonists” (Bioorg Med Chem Lett, 2011)
# Biological target: T1, Adenosine receptor A3 (Homo sapiens, UniProt P0DMS8)
# T1 sequence (P0DMS8 whole entry): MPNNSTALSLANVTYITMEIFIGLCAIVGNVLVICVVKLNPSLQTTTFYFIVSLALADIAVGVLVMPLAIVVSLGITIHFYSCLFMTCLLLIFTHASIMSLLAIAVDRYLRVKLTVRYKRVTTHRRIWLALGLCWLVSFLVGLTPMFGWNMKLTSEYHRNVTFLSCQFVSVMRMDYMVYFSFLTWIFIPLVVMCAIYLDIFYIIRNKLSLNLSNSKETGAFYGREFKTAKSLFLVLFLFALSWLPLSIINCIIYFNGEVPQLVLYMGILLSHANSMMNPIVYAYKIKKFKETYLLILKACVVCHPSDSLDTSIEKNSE
# Experiment: Antagonist activity at human adenosine A3 receptor
# Type: functional
row,SMILES,Ki [nM]
1,O=C(Cc1ccccc1)Nc1nc2nn(CCc3ccccc3)cc2c2nc(-c3ccc(Cl)cc3)nn12,8.48
2,Cn1cc2c(nc(NC(=O)N[n+]3ccccc3)n3nc(-c4ccco4)nc23)n1,0.01
